Measurements as given in patent US20240009157A1 (PriZm, LLC, priority 2022, published 2024).

Legend:
[1] = tested on: child having a G-tube; assay: Effect of DITPA on removal of G-tube; format: in vivo, human; settings: one child who started DITPA while having a G-tube
[2] = tested on: pediatric patient suffering from Allan-Herndon-Dudley Syndrome; assay: Dosing regimen for a pediatric subject, T3 serum levels; format: in vivo, human
Protocol: Following the first 2 weeks, the daily dosage was increased to 2 mg/kg/day for 2 additional weeks. […] Following the first 2 weeks, the daily dosage was increased to 2 mg/kg/day for 2 additional weeks. […] Following the first 2 weeks, the daily dosage was increased to 2 mg/kg/day for 2 additional weeks.

[3] = tested on: MCT8 mutant (mct8−/−) zebrafish; settings: cited from earlier work
[4] = ambient temperature and light; cited from earlier work
[5] = tested on: MCT8-deficient (knockout) mice (Mct8KO); settings: cited from earlier work
[6] = tested on: pediatric subjects; settings: human, in vivo; cited from earlier work

| SMILES | G-tube [1] | body weight [1] | T3 serum levels above normal ([2]; 1 mg/kg/day for 2 weeks, then 2 mg/kg/day for 2 additional weeks, above normal) | T3 serum levels below normal ([2]; 1 mg/kg/day for 2 weeks, then 2 mg/kg/day for 2 additional weeks, below normal) | T3 serum levels upon reassessment ([2]; after 1.0 mg/kg/day for 28 days) | T3 serum levels upon reassessment ([2]; after 1.5 mg/kg/day for 28 days) | T3 serum levels upon reassessment, below normal ([2]; after 1.5 mg/kg/day for 28 days, below normal) | T3 serum levels upon reassessment ([2]; after 2.5 mg/kg/day for 28 days) | hypomyelination in the CNS [3] | stability [4] | MCT8 dependence of entry into the brain [5] | TH deficit [5] | measurements and other parameters of TH action [5] | thyrotoxic effect in the liver [5] | thyrotoxic state in the liver (analysis of TH target genes) [5] | effects in pediatric subjects [6] |
| --- | --- | --- | --- | --- | --- | --- | --- | --- | --- | --- | --- | --- | --- | --- | --- | --- |
| O=C(O)CCc1cc(I)c(Oc2ccc(O)cc2)c(I)c1 [DITPA, 3,5-diiodothyropropionic acid] | g-tube was removed | gained weight | more than 15% | more than 15% | normal | normal | more than 15% | normal | SRW101 and other TH analogs partially rescued the hypomyelination | stable at ambient temperature and light | independent for entry into the brain | corrects the TH deficit | showed that SRW101 normalized all measurements and other | Mct8KO mice without causing thyrotoxic effect in the liver (Di | amelioration of the thyrotoxic state in the liver (ameliorating | – |
| O=C(O)Cc1cc(I)c(Oc2ccc(O)c(I)c2)c(I)c1 [TRIAC, triiodothyroacetic acid] | – | – | – | – | – | – | – | – | – | – | – | – | – | – | – | subjects with positive effects. |
